# Laboratory results published in PubChem BioAssay (NCI).
# Where “and” joins values, the source holds several entries; their conditions need not be identical. Equal values may be shown once.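 Where inhibition never reached the appropriate level, the endpoint shown equals the highest concentration tested. Otherwise, values were interpolated linearly from a five-concentration, 48-hour dose response in 96-well plates. GI50: concentration for 50% inhibition of growth. Definition used: TGI = concentration required for complete inhibition of growth.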
# Experiments:
# Test in all cases: NCI anticancer screen, dose series, 48 h
# [1] = test system: CCRF-CEM leukemia
# [2] = test system: COLO 205 colon
# [3] = test system: EKVX NSCLC
# [4] = test system: HCC-2998 colon
# [5] = test system: IGROV1 ovarian
# [6] = test system: OVCAR-8 ovarian
# [7] = test system: SK-MEL-5 melanoma
# [8] = test system: SN12C renal
# [9] = test system: UACC-257 melanoma
# [10] = test system: UO-31 renal
SMILES,GI50 [1],TGI [1],GI50 [2],TGI [2],GI50 [3],TGI [3],GI50 [4],TGI [4],GI50 [5],TGI [5],GI50 [6],TGI [6],GI50 [7],TGI [7],GI50 [8],TGI [8],GI50 [9],TGI [9],GI50 [10],TGI [10]
COC(=O)[C@]12CC[C@@H](C)[C@H](C)[C@@H]1C1=CC[C@@H]3[C@@]4(C)CC(=O)[C@H](O)[C@@](C)(CO)[C@@H]4C(=O)C[C@@]3(C)[C@]1(C)CC2,3.38 µM,28.7 µM,14.3 µM,29.5 µM,14.8 µM,29.2 µM,16.9 µM,33.9 µM,12.7 µM,28.1 µM,4.89 µM,22.6 µM,11.6 µM,23.9 µM,12.4 µM,27.3 µM,16.8 µM,31.7 µM,5.7 µM,23.4 µM
O=C(c1ccco1)c1c(C(F)(F)F)n([O-])c2ccc(F)cc2[n+]1=O,0.4 µM,2.97 µM,0.524 µM,1.36 µM,2.95 µM,8.09 µM,0.775 µM,2.02 µM,1.23 µM,2.78 µM,0.558 µM,1.17 µM,1.84 µM,5.88 µM,1.33 µM,3.38 µM,1.47 µM,2.81 µM,1.6 µM,3 µM
O=C(NC1C(=O)NNC1c1ccccc1Cl)c1ccccc1 (stereo not given),–,> 100 µM,–,> 100 µM,–,> 100 µM,–,> 100 µM,–,> 100 µM,–,> 100 µM,–,> 100 µM,–,> 100 µM,–,> 100 µM,–,> 100 µM
COC(=O)/C(=N/NC(C)(C)C)C(C(=O)OC)C(=O)C(=O)Nc1nc2ccc([N+](=O)[O-])cc2s1 (stereo not given),–,> 100 µM,–,> 100 µM,–,> 100 µM,–,> 100 µM,–,> 100 µM,–,> 100 µM,–,> 100 µM,–,> 100 µM,–,> 100 µM,–,> 100 µM
COC(=O)C1(C)CCCC2(C)c3cc(OC)ccc3C(=O)C(Br)C12 (stereo not given),–,6.59 µM,–,7.29 µM,–,> 10 µM,–,> 10 µM,–,> 10 µM,–,4.54 µM,–,> 10 µM,–,> 10 µM,–,> 10 µM,–,3.28 µM
O=C1c2ccccc2C(=O)c2c1ccc1c2N=C(c2ccc(Br)cc2)CC(c2cccc3ccccc23)N1 (stereo not given),–,> 100 µM,–,> 100 µM,–,> 100 µM,–,> 100 µM,–,> 100 µM,–,> 100 µM,–,> 100 µM,–,> 100 µM,–,> 100 µM,–,> 100 µM
C[C@H](c1ccccc1)N(CCC(=O)O)C(=O)CCN(C(=O)CCN(C(=O)CCN[C@H](C)c1ccccc1)[C@H](C)c1ccccc1)[C@H](C)c1ccccc1,> 100 µM,> 100 µM,> 100 µM,> 100 µM,> 100 µM,> 100 µM,> 100 µM,> 100 µM,> 100 µM,> 100 µM,> 100 µM,> 100 µM,> 100 µM,> 100 µM,> 100 µM,> 100 µM,> 100 µM,> 100 µM,> 100 µM,> 100 µM
COc1ccc(/C=C2\CCC(Cc3ccccc3)(CN(C)C)C2=O)cc1 (stereo not given),–,72.3 µM,–,> 74.8 µM,–,> 100 µM,–,> 100 µM,–,> 100 µM,–,> 100 µM,–,44.8 µM,–,> 100 µM,–,66.2 µM,–,> 100 µM
CC1CC(c2ccc(Cl)c(Cl)c2)=Nc2ccccc2S1 (stereo not given),–,> 100 µM,–,> 100 µM,–,> 100 µM,–,> 100 µM,–,> 100 µM,–,> 100 µM,–,> 100 µM,–,> 100 µM,–,> 100 µM,–,> 100 µM
O=C1/C(=C/c2ccccc2[N+](=O)[O-])COc2ccc(O)c(O)c21,0.365 µM,> 50 µM,0.71 µM,2.57 µM,2.51 µM,10.8 µM,1.56 µM,3.16 µM,0.73 µM,2.55 µM,0.525 µM,18.6 µM,1.53 µM,3.02 µM,0.679 µM,6.05 µM,1.42 µM,4.06 µM,0.295 µM,2.03 µM
N#Cc1ccc(/C=C/C(=O)c2ccccc2)cc1,8.31 µM and 2.86 µM,> 57 µM and 11.5 µM,6.34 µM and 14.3 µM,16.3 µM and 27.9 µM,16.6 µM and 13.6 µM,34.9 µM and 27.4 µM,5.82 µM and 5.13 µM,10.7 µM and 10.3 µM,4.18 µM and 2.27 µM,14.6 µM and 5.58 µM,9.07 µM and 11.2 µM,22.2 µM and 27.5 µM,14 µM and 12.6 µM,26.9 µM and 25.4 µM,14.8 µM and 14.2 µM,28.3 µM and 27.7 µM,13.6 µM and 15.6 µM,26.4 µM and 29.5 µM,2.8 µM and 11.5 µM,7.98 µM and 23.9 µM
Oc1cccc(-c2nc(-c3ccccc3)[nH]c2-c2ccncc2)c1,17.1 µM,> 25 µM,4.88 µM,12.2 µM,> 25 µM,> 25 µM,11.7 µM,> 25 µM,10.4 µM,> 25 µM,> 25 µM,> 25 µM,3.59 µM,14.7 µM,15.9 µM,> 25 µM,2.97 µM,14 µM,10.1 µM,> 25 µM
CCOC(=O)c1cc(-c2ccccc2)[nH]c1N/N=C/c1c(Cl)cccc1Cl,2.3 µM,13.5 µM,2.71 µM,15.3 µM,5.96 µM,> 100 µM,1.01 µM,7.48 µM,0.752 µM,29.3 µM,4.77 µM,> 100 µM,0.706 µM,14.1 µM,4.3 µM,> 100 µM,49.2 µM,> 100 µM,1.34 µM,> 100 µM
CNCCN(C)Cc1cn[nH]c1-c1ccc(OC2CC(OCCC3CCOCC3)C2)cc1 (stereo not given),> 100 µM,> 100 µM,21.2 µM,85.7 µM,> 77.7 µM,> 100 µM,> 100 µM,> 100 µM,48.5 µM,> 100 µM,> 100 µM,> 100 µM,34 µM,> 100 µM,> 100 µM,> 100 µM,61.6 µM,> 100 µM,28 µM,> 100 µM
COC(=O)C1=C(\O)C[C@@]2(C)CC[C@@H](C(=O)OC)C2C/C=C\1C(=O)OC (stereo not given in full),–,> 100 µM,–,> 100 µM,–,> 100 µM,–,> 100 µM,–,> 100 µM,–,> 100 µM,–,> 100 µM,–,> 100 µM,–,> 100 µM,–,> 100 µM
O=C(Nc1ccccc1)Nc1ccc(Cl)c(Cl)c1,4.87 µM,> 100 µM,3.04 µM,11.1 µM,2.93 µM,> 100 µM,4.03 µM,> 100 µM,3.63 µM,> 100 µM,3.2 µM,79.3 µM,3.61 µM,14.4 µM,3 µM,> 100 µM,3.73 µM,32.9 µM,2.62 µM,21.9 µM
CN1CCc2cc3c4cc2C1Cc1ccc(cc1)Oc1cc(ccc1O)CC1c2c(cc(O)c(c2O4)O3)CCN1C (stereo not given),–,14 µM,–,21.9 µM,–,25.8 µM,–,4.11 µM,–,14.3 µM,–,8.55 µM,–,16.7 µM,–,14.8 µM,–,4.04 µM,–,13.6 µM
